Measured values from patent publication US5348980A, “Enantiomers derived from (S)-2-amino-2-(3,4-dichlorobenzyl)-1-propanol, their use and method of preparation” (Institute de Recherche Jouveinal, priority 1992, dated 1994).
Structures can show the parent of a compound that is named as a salt.

Tests used:
Assay type in all cases: in vivo, guinea pigs
[1] = tested on: bronchoconstriction caused by 100 μmol/kg of histamine; experiment: Histamine-induced bronchoconstriction test (Konzett and Rossler), i.v. administration; settings: for ED50: Cavia porcellus, iv
Description: (§1) Furthermore, the antihistaminic properties were studied in guinea pigs by the bronchoconstriction test performed according to the method of H. Konzett and R. Rossler (Arch. Exp. Path. Pharmak.--Naunym Schmiedeberg - 195, 71-74, 1940).
(§2) The products of the invention were studied in this test after administration in solution or in suspension via the intravenous and intraduodenal routes, and also in powder form via the intranasal route.
(§3) Irrespective of the administration route, the preparation of the animals employed in the test consists in first anesthetizing male guinea pigs weighing 350 to 400 g by intraperitoneal (i.p.) injection of a sterile and isotonic solution containing 25% (w/v.) of ethyl carbamate on the basis of 6.0 ml/kg, and in then fitting the animals with a tracheal cannula to permit measurement of the pulmonary pressure, a cannula in the right jugular vein for the intravenous (i.v.) administration of solution, and also a cannula in the left carotid artery for qualitative observation of the blood pressure.
(§4) The animals are then connected to a pump (Harvard, ref. 50-1718) in order to maintain an artificial ventilation at a frequency of 60 insufflations per minute; the intratracheal pressure is recorded by an assembly comprising a transducer, an amplifier and a recorder (Gould, respective refs.: PLOEZ, 13-4615-50 and 8188-G4400-06).
(§5) Fitted in this way, the animals are left undisturbed for 10 minutes before the beginning of the actual experiment, which is carried out in different ways according to the administration route envisaged.
(§6) In base form, the test products are dissolved in an isotonic solution (0.9% NaCl) containing 10% (v/v) of Transcutol (R). Dilutions are performed by adding isotonic solution. In salt, in particular hydrochloride, form, the solutions are prepared in the isotonic solution.
(§7) The treatment of the animals consists of a series of administrations of histamine dihydrochloride solution on the basis of 100 μmol/kg before and after treatment with the solution of test product, which is carried out according to the following time schedule:
(§8) t=-20 minutes - histamine (100 μmol/kg)
(§9) t=-10 minutes - ditto control
(§10) t=0 - injection of the test product
(§11) t=+10 minutes - histamine (100 μmol/kg)
(§12) - Calculation and expression of the results:
(§13) For each administration route and for each time of administration of histamine, the activity of the products is expressed as the percentage change in amplitude of bronchoconstriction, calculated relative to that produced by the "control" administration of histamine which precedes the administration of the test product. The % change is calculated according to the formula: [formula] in which: Bc(tx) represents the amplitude of the bronchoconstriction in mm at time x,
(§14) Bo(tx) the amplitude of the base-line respiration in mm at time x,
(§15) Bc(to) and Bo(to) the corresponding amplitudes in mm on receipt of the "control" administration of histamine which precedes that of the test product.
(§16) The inhibitory activity of the test products on histamine-induced bronchoconstriction is expressed at different times of the studies as their ED50, which is the effective dose of product, expressed in μmol/kg, capable of inhibiting 50% of the histamine-induced bronchoconstriction at the time in question.
(§17) Failing this expression, the results are expressed as a % change at the time in question and for a given concentration of the test product. Under these conditions, a positive percentage corresponds to a potentiating effect on bronchoconstriction and, conversely, a negative percentage to an inhibitory effect.
(§18) Statistical analyses of the results were carried out by the Student t test. A value of p<0.05 is considered significant.
(§19) The compounds of the invention described in Examples 1 and 2 were employed in these tests. In addition, as a comparative product for the eutomer of Example 1, the racemic (R,S) compound corresponding to it, and which is described and prepared in Example 7 of U.S. Pat. No. 4,994,617, was employed. […]

[2] = tested on: bronchoconstriction caused by 100 μmol/kg of histamine; experiment: Histamine-induced bronchoconstriction test (Konzett and Rossler), intraduodenal (i.d.) administration; settings: for ED50: Cavia porcellus
Description: as §1, §2, §3, §4, §5
In base form, the test products are suspended in a solution containing 1% w/v of carboxymethylcellulose (CMC), and, in salt form, they are dissolved in an isotonic solution before being administered via a cannula whose end is placed in the animal's duodenum.
The time schedule for the successive administrations of histamine via the i.v. route and that for the test solution via the i.d. route are identical to that described above in a).
as §12, §13, §14, §15, §16, §17, §18, §19

[3] = tested on: bronchoconstriction caused by histamine; experiment: Histamine-induced bronchoconstriction test (Konzett and Rossler), i.v. administration; settings: 3.5 μmol/kg, t = 10', statistically nonsignificant
Description: as §1, §2, §3, §4, §5, §6, §7, §8, §9, §10, §11, §12, §13, §14, §15, §16, §17, §18, §19

[4] = tested on: bronchoconstriction caused by 100 nmol/kg of histamine; experiment: Histamine-induced bronchoconstriction test (Konzett and Rossler), intranasal-powder (In.P.) administration; settings: Cavia porcellus, 5 min, t = 5 min, read-out: ED50 at t = 5 min, inhibition of histamine-induced bronchoconstriction
Description: Furthermore, the antihistaminic properties were studied in guinea pigs by the bronchoconstriction test performed according to the method of H. Konzett and R. Rossler (Arch. Exp. Path. Pharmak.--Naunym Schmiedeberg - 195, 71-74, 1940). The products of the invention were studied in this test after administration in solution or in suspension via the intravenous and intraduodenal routes, and also in powder form via the intranasal route. Irrespective of the administration route, the preparation of the animals employed in the test consists in first anesthetizing male guinea pigs weighing 350 to 400 g by intraperitoneal (i.p.) injection of a sterile and isotonic solution containing 25% (w/v.) of ethyl carbamate on the basis of 6.0 ml/kg, and in then fitting the animals with a tracheal cannula to permit measurement of the pulmonary pressure, a cannula in the right jugular vein for the intravenous (i.v.) administration of solution, and also a cannula in the left carotid artery for qualitative observation of the blood pressure. The animals are then connected to a pump (Harvard, ref. 50-1718) in order to maintain an artificial ventilation at a frequency of 60 insufflations per minute; the intratracheal pressure is recorded by an assembly comprising a transducer, an amplifier and a recorder (Gould, respective refs.: PLOEZ, 13-4615-50 and 8188-[…]-06). Fitted in this way, the animals are left undisturbed for 10 minutes before the beginning of the actual experiment, which is carried out in different ways according to the administration route envisaged. c) intranasal-powder (In.p) administration The test product is administered via a nasal insufflation of a powder consisting of 20 mg of lactose loaded with the appropriate quantity of the test product. Before this insufflation, the artificial ventilation of the animal is momentarily stopped in order to facilitate the pulmonary penetration of the compound. […] Failing this expression, the results are expressed as a % change at the time in question and for a given concentration of the test product. […]

[5] = 10 min, t = 10', read-out: ED50, inhibition of histamine-induced bronchoconstriction, t = 10'
[6] = 20 min, t = 20', read-out: ED50, inhibition of histamine-induced bronchoconstriction, t = 20'
[7] = 0.5 h, t = 30', read-out: ED50, inhibition of histamine-induced bronchoconstriction, t = 30'
[8] = 40 min, t = 40', read-out: ED50, inhibition of histamine-induced bronchoconstriction, t = 40'
[9] = 50 min, t = 50', read-out: ED50, inhibition of histamine-induced bronchoconstriction, t = 50'
[10] = 1 h, t = 60', read-out: ED50, inhibition of histamine-induced bronchoconstriction, t = 60'
[11] = 3.5 μmol/kg, t = 20', statistically nonsignificant
[12] = 3.5 μmol/kg, t = 30', statistically nonsignificant
[13] = 3.5 μmol/kg, t = 40', statistically nonsignificant
[14] = 3.5 μmol/kg, t = 50', statistically nonsignificant
[15] = 3.5 μmol/kg, t = 60', statistically nonsignificant

Structure (SMILES)	ED50 [1, 5]	ED50 [1, 6]	ED50 [1, 7]	ED50 [1, 8]	ED50 [1, 9]	ED50 [1, 10]	also measured
C=CCN[C@](C)(CO)Cc1ccc(Cl)c(Cl)c1 [Example 1, (S)-(-)-N-allyl-2-amino-2-(3,4-dichlorobenzyl)-1-propanol]	4.89 µmol/kg	2.88 µmol/kg	2.54 µmol/kg	2.58 µmol/kg	3.17 µmol/kg	3.55 µmol/kg	ED50 [2, 6]: 1 µmol/kg; ED50 [2, 7]: 0.78 µmol/kg; ED50 [2, 8]: 0.69 µmol/kg; ED50 [2, 9]: 1.28 µmol/kg; ED50 [2, 10]: 2.17 µmol/kg
O=C1NCC2(CCN(CCc3ccccc3)CC2)O1 [Fenspiride (INN). HCl]	4.25 µmol/kg	4.99 µmol/kg	6.26 µmol/kg	8.9 µmol/kg	8.01 µmol/kg	11 µmol/kg	–
C=CCN(C)[C@@](C)(CO)Cc1ccc(Cl)c(Cl)c1 [Comparative distomer, (R)-(-)-N-allyl-2-methylamino-2-(3,4-dichlorobenzyl)-1-propanol, reference compound]	–	–	–	–	–	–	% potentiating effect on bronchoconstriction, t = 10' [3]: +6.3%; effect on histamine activity (in words) [1]: perceptibly though not significantly in statistical terms, a potentiating effect on histamine activity; % potentiating effect on bronchoconstriction, t = 20' [1, 11]: +18.4%; % potentiating effect on bronchoconstriction, t = 30' [1, 12]: +28.2%; % potentiating effect on bronchoconstriction, t = 40' [1, 13]: +35.4%; % potentiating effect on bronchoconstriction, t = 50' [1, 14]: +36.7%; % potentiating effect on bronchoconstriction, t = 60' [1, 15]: +41.1%; effect on histamine activity (in words) [2]: perceptibly though not significantly in statistical terms, a potentiating effect on histamine activity; % potentiating effect on bronchoconstriction, t = 10' ([2]; 3.5 μmol/kg, t = 10', statistically nonsignificant): +5.8%; % potentiating effect on bronchoconstriction, t = 20' [2, 11]: +14.6%; % potentiating effect on bronchoconstriction, t = 30' [2, 12]: +32.4%; % potentiating effect on bronchoconstriction, t = 40' [2, 13]: +44.5%; % potentiating effect on bronchoconstriction, t = 50' [2, 14]: +35.6%; % potentiating effect on bronchoconstriction, t = 60' [2, 15]: +30.0%
C=CCN(C)C(C)(CO)Cc1ccc(Cl)c(Cl)c1 (racemic) [Comparative racemate. HCl]	3.72 µmol/kg	2.11 µmol/kg	1.88 µmol/kg	2.07 µmol/kg	2.34 µmol/kg	2.22 µmol/kg	–
CC1(C)Oc2ccc(C#N)cc2[C@H](N2CCCC2=O)[C@H]1O (relative stereo) [Cromakalim (INN), reference compound]	–	–	–	–	–	–	ED50 [4]: 1.88 µmol/kg
C=CCNC(C)(CO)Cc1ccc(Cl)c(Cl)c1 (racemic) [Comparative racemate]	6.65 µmol/kg	4.1 µmol/kg	4.38 µmol/kg	3.39 µmol/kg	3.02 µmol/kg	3.52 µmol/kg	–
